Values of other authors in patent publication US6867034B2, “Methods of screening novel agents for use in cancer therapy and prevention” (The Curators of The University of Missouri, priority 2000, dated 2005).

Legend:
repB = conditions: after cisplatin treatment, versus basal levels
repD = conditions: after cisplatin treatment, versus basal levels
Dictyostelium cells = conditions: 300 μM cisplatin

N.N.[Cl][Pt][Cl] [cisplatin]
levels of repB mRNA (repB): rapidly increase from basal levels | levels of repD mRNA (repD): rapidly increase from basal levels | viability of the cells (Dictyostelium cells): reduced by three orders of magnitude
